Laboratory results reported in patent publication US11130769B2 (Prelude Therapeutics Incorporated, priority 2018, dated 2021).

Assays:
[1] = tested on: H929 cells; assay: Cell viability assay (H929 10 FBS); type: cell-based; settings: Homo sapiens, NCI-H929, 24 hours, read-out: H929_10FBS IC50
Method in brief: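 H929 cells, 4000/well, in RPMI 1640 with 10% FBS, sodium pyruvate, HEPES and glucose were exposed to compound 24 h at 37 °C. Viability read as luminescence after 30-60 min at RT with CellTiter-Glo or ATPlite 1 Step.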

[2] = biological target: MCL-1 (Homo sapiens (Human), UniProt Q07820); assay: Cell free Mcl-1:Bim affinity assay (fluorescence polarization competition); type: binding; settings: 15 nM MCL-1, 5 nM FITC-Bim, 1 hour at room temperature; class symbols; read-out: BIM_Ki
Method in brief: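 Compounds competed with FITC-labelled Bim peptide (5 nM) for MCL-1 (15 nM) in HEPES/NaCl buffer with 1% DMSO, 1 h at room temperature. Fluorescence polarization (535 nm emission) gave % inhibition versus DMSO and positive controls; IC50 from 10-point curves, converted to Ki by the Nikolovska-Coleska equation.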

Sequence of MCL-1 (Q07820 whole entry): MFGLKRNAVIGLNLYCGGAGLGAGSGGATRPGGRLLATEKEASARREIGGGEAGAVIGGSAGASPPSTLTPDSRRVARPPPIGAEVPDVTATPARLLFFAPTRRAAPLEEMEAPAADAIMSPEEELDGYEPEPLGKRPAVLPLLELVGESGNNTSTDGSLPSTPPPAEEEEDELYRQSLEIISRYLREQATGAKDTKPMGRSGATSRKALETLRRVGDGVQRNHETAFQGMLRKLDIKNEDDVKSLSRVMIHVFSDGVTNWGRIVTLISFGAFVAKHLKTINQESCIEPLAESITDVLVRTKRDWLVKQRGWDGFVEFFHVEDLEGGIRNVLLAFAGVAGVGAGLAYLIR

IC50 [1]	Ki [2]	Structure (SMILES)
< 500 nM	< 1 nM	CC1(C)OC/C=C/[C@@H](OCCN2CC(F)(F)C2)[C@@H]2CC[C@H]2CN2C[C@@]3(CCCc4cc(Cl)ccc43)COc3ccc(cc32)S(=O)(=O)NC1=O [Example 272, (3R,6R,7R,8E,22S)-6′-Chloro-7-[2-(3,3-difluoroazetidin-1-yl)ethoxy]-12,12-dimethyl-15,15-dioxo-spiro[11,20-dioxa-15-thia-1,14-diazatetracyclo[14.7.2.03,6.019,24]pentacosa-8,16,18,24-tetraene-22,1′-tetralin]-13-one]
> 1000 nM	1 to 100 nM	CN1C/C=C/[C@H](OCCN2CCCCC2)[C@@H]2CC[C@H]2CN2C[C@@]3(CCCc4cc(Cl)ccc43)COc3ccc(cc32)S(=O)(=O)NC(=O)C1(C)C [Example 289, (3R,6R,7S,8E,22S)-6′-Chloro-11,12,12-trimethyl-15,15-dioxo-7-[2-(1-piperidyl)ethoxy]spiro[20-oxa-15-thia-1,11,14-triazatetracyclo[14.7.2.03,6.019,24]pentacosa-8,16,18,24-tetraene-22,1′-tetralin]-13-one]
> 1000 nM	< 1 nM	COC[C@@H]1OC/C=C/[C@@H](OC)[C@@H]2CC[C@H]2CN2C[C@@]3(CCCc4cc(Cl)ccc43)COc3ccc(cc32)S(=O)(=O)NC1=O [Example 125, (3R,6R,7R,8E,12S,22S)-6′-Chloro-7-methoxy-12-(methoxymethyl)-15,15-dioxo-spiro[11,20-dioxa-15-thia-1,14-diazatetracyclo[14.7.2.03,6.019,24]pentacosa-8,16(25),17,19(24)-tetraene-22,1′-tetralin]-13-one]
< 500 nM	< 1 nM	CN(C)[C@H]1CCN(C(=O)O[C@H]2/C=C/COC(C)(C)C(=O)NS(=O)(=O)c3ccc4c(c3)N(C[C@@H]3CC[C@H]32)C[C@@]2(CCCc3cc(Cl)ccc32)CO4)C1 [Example 154, [(3R,6R,7S,8E,22S)-6′-Chloro-12,12-dimethyl-13,15,15-trioxo-spiro[11,20-dioxa-15-thia-1,14-diazatetracyclo[14.7.2.03,6.019,24]pentacosa-8,16,18,24-tetraene-22,1′-tetralin]-7-yl] (3S)-3-(dimethylamino)pyrrolidine-1-carboxylate]
< 1000 nM	< 1 nM	COC[C@H]1C(=O)NS(=O)(=O)c2ccc3c(c2)N(C[C@@H]2CC[C@H]2[C@H](OC)/C=C/C[C@@H]1C)C[C@@]1(CCCc2cc(Cl)ccc21)CO3 [Example 87, (3R,6R,7R,8E,11S,12S,22S)-6′-Chloro-7-methoxy-12-(methoxymethyl)-11-methyl-15,15-dioxo-spiro[20-oxa-15-thia-1,14-diazatetracyclo[14.7.2.03,6.019,24]pentacosa-8,16,18,24-tetraene-22,1′-tetralin]-13-one]
< 500 nM	< 1 nM	CONC(=O)O[C@H]1/C=C/COC(C)(C)C(=O)NS(=O)(=O)c2ccc3c(c2)N(C[C@@H]2CC[C@H]21)C[C@@]1(CCCc2cc(Cl)ccc21)CO3 [Example 167, [(3R,6R,7S,8E,22S)-6′-Chloro-12,12-dimethyl-13,15,15-trioxo-spiro[11,20-dioxa-15-thia-1,14-diazatetracyclo[14.7.2.03,6.019,24]pentacosa-8,16,18,24-tetraene-22,1′-tetralin]-7-yl] N-methoxycarbamate]
< 500 nM	< 1 nM	CC1(C)OC/C=C/[C@H](OCCN2CC[C@@H](F)C2)[C@@H]2CC[C@H]2CN2C[C@@]3(CCCc4cc(Cl)ccc43)COc3ccc(cc32)S(=O)(=O)NC1=O [Example 264, (3R,6R,7S,8E,22S)-6′-Chloro-7-[2-[(3R)-3-fluoropyrrolidin-1-yl]ethoxy]-12,12-dimethyl-15,15-dioxo-spiro[11,20-dioxa-15-thia-1,14-diazatetracyclo[14.7.2.03,6.019,24]pentacosa-8,16,18,24-tetraene-22,1′-tetralin]-13-one]
> 1000 nM	1 to 100 nM	CO[C@@H]1/C=C/CC[C@@H](CO)C(=O)NS(=O)(=O)c2ccc3c(c2)N(C[C@@H]2CC[C@H]21)C[C@@]1(CCCc2cc(Cl)ccc21)CO3 [Example 95, (3R,6R,7R,8E,12S,22S)-6′-Chloro-12-(hydroxymethyl)-7-methoxy-15,15-dioxo-spiro[20-oxa-15-thia-1,14-diazatetracyclo[14.7.2.03,6.019,24]pentacosa-8,16,18,24-tetraene-22,1′-tetralin]-13-one]
< 1000 nM	1 to 100 nM	CO[C@@H]1/C=C/CNC2(CCC2)C(=O)NS(=O)(=O)c2ccc3c(c2)N(C[C@@H]2CC[C@H]21)C[C@@]1(CCCc2cc(Cl)ccc21)CO3 [Example 116, (3R,6R,7R,8E,22S)-6′-Chloro-7-methoxy-12,12-(1,3-propylene)-15,15-dioxo-spiro[[20]oxa-15-thia-1,11,14-triazatetracyclo[14.7.2.03,6.019,24]pentacosa[8,16(25),17,19(24)]tetraene-22,1′-tetralin]-13-one]
< 1000 nM	1 to 100 nM	CON(C)CCO[C@H]1/C=C/COC(C)(C)C(=O)NS(=O)(=O)c2ccc3c(c2)N(C[C@@H]2CC[C@H]21)C[C@@]1(CCCc2cc(Cl)ccc21)CO3 [Example 267, (3R,6R,7S,8E,22S)-6′-Chloro-7-[2-[methoxy(methyl)amino]ethoxy]-12,12-dimethyl-15,15-dioxo-spiro[11,20-dioxa-15-thia-1,14-diazatetracyclo[14.7.2.03,6.019,24]pentacosa-8,16,18,24-tetraene-22,1′-tetralin]-13-one]
> 1000 nM	1 to 100 nM	CO[C@H]1/C=C/CCCC(=O)NS(=O)(=O)c2ccc3c(c2)N(C[C@@H]2CC[C@H]21)C[C@@]1(CCCc2cc(Cl)ccc21)CO3 [Example 80, (3R,6R,7S,8E,22S)-6′-Chloro-7-methoxy-15,15-dioxo-spiro[20-oxa-15-thia-1,14-diazatetracyclo[14.7.2.03,6.019,24]pentacosa-8,16(25),17,19(24)-tetraene-22,1′-tetralin]-13-one]
< 500 nM	< 1 nM	CC1(C)OC/C=C/[C@H](O)[C@@H]2CC[C@H]2CN2C[C@@]3(CCCc4cc(Cl)ccc43)COc3ccc(cc32)S(=O)(=O)NC1=O [Example 32, (3R,6R,7S,8E,22S)-6′-Chloro-7-hydroxy-12,12-dimethyl-15,15-dioxo-spiro[11,20-dioxa-15-thia-1,14-diazatetracyclo[14.7.2.03,6.019,24]pentacosa-8,16,18,24-tetraene-22,1′-tetralin]-13-one]
> 1000 nM	1 to 100 nM	COC(=O)N(C)[C@H]1/C=C/COC(C)(C)C(=O)NS(=O)(=O)c2ccc3c(c2)N(C[C@@H]2CC[C@H]21)C[C@@]1(CCCc2cc(Cl)ccc21)CO3 [Example 254, Methyl N-methyl-N-[(3R,6R,7S,8E,22S)-6′-chloro-12,12-dimethyl-13,15,15-trioxo-spiro[11,20-dioxa-15-thia-1,14-diazatetracyclo[14.7.2.03,6.019,24]pentacosa-8,16(25),17,19(24)-tetraene-22,1′-tetralin]-7-yl]carbamate]
< 500 nM	< 1 nM	CC1(C)OC/C=C/[C@H](OC(=O)NC2CCOCC2)[C@@H]2CC[C@H]2CN2C[C@@]3(CCCc4cc(Cl)ccc43)COc3ccc(cc32)S(=O)(=O)NC1=O [Example 185, [(3R,6R,7S,8E,22S)-6′-Chloro-12,12-dimethyl-13,15,15-trioxo-spiro[11,20-dioxa-15-thia-1,14-diazatetracyclo[14.7.2.03,6.019,24]pentacosa-8,16,18,24-tetraene-22,1′-tetralin]-7-yl] N-tetrahydropyran-4-ylcarbamate]
< 500 nM	< 1 nM	CC1(C)OC/C=C/[C@H](OC(=O)N2CCC2)[C@@H]2CC[C@H]2CN2C[C@@]3(CCCc4cc(Cl)ccc43)COc3ccc(cc32)S(=O)(=O)NC1=O [Example 174, [(3R,6R,7S,8E,22S)-6′-Chloro-12,12-dimethyl-13,15,15-trioxo-spiro[11,20-dioxa-15-thia-1,14-diazatetracyclo[14.7.2.03,6.019,24]pentacosa-8,16,18,24-tetraene-22,1′-tetralin]-7-yl] azetidine-1-carboxylate]
< 500 nM	< 1 nM	CN(C)C(=O)O[C@@H]1/C=C/CNC(C)(C)C(=O)NS(=O)(=O)c2ccc3c(c2)N(C[C@@H]2CC[C@H]21)C[C@@]1(CCCc2cc(Cl)ccc21)CO3 [Example 198, [(3R,6R,7R,8E,22S)-6′-Chloro-12,12-dimethyl-13,15,15-trioxo-spiro[20-oxa-15-thia-1,11,14-triazatetracyclo[14.7.2.0˜3,6.0˜19,24]pentacosa-8,16,18,24-tetraene-22,1′-tetralin]-7-yl] N,N-dimethylcarbamate]
< 500 nM	< 1 nM	CN(C)C(=O)O[C@H]1/C=C/COC(C)(C)C(=O)NS(=O)(=O)c2ccc3c(c2)N(C[C@@H]2CC[C@H]21)C[C@@]1(CCOc2cc(Cl)ccc21)CO3 [Example 247, [(3R,6R,7S,8E,22S)-7′-Chloro-12,12-dimethyl-135,5-trioxo-spiro[11,20-dioxa-15-thia-1,14-diazatetracyclo[14.7.2.03,6.019,24]pentacosa-8,16,18,24-tetraene-22,4′-chromane]-7-yl] N,N-dimethylcarbamate]
< 500 nM	1 to 100 nM	CO[C@@H]1/C=C/CN(C)C(C)(C)C(=O)NS(=O)(=O)c2ccc3c(c2)N(C[C@@H]2CC[C@H]21)C[C@@]1(CCCc2cc(Cl)ccc21)CO3 [Example 42, (3R,6R,7R,8E,22S)-6′-Chloro-7-methoxy-11,12,12-trimethyl-15,15-dioxo-spiro[20-oxa-15-thia-1,11,14-triazatetracyclo[14.7.2.03,6.019,24]pentacosa-8,16,18,24-tetraene-22,1′-tetralin]-13-one]
